Measurements taken from PMC6104039 (Nature Communications, 2018).
“Also recorded” adds a separate entry of the source.

Tests used:
SkM [1] = test: Targeted quantification of sphingosine and dihydrosphingosine in SkM; type: in vivo, mice; details: 5 mg/kg daily
Source text: Male C57BL6/J mice were obtained from the Animal Resources Centre in Perth (WA, Australia). […] Treatment was commenced at the same time as mice were randomised to dietary groups. The experiments were approved by the UNSW animal care and ethics committee (ACEC 15/48B), and followed guidelines issued by the National Health and Medical Research Council of Australia.

[2] = molecular target: T1, recombinant human sphingosine kinase 2 (Homo sapiens, UniProt Q9NRA0); test: Sphingosine kinase assay with NBD-dihydrosphingosine, TLC; type: biochemical; details: 10 μM
T1 construct: purchased R&D Systems
Protocol: Sphingosine kinase assays were performed using fluorescent NBD-dihydrosphingosine[63],[64]. […] Reactions were stopped with 100 μL methanol, and 5 μL amounts were resolved on Silica Gel 60 thin layer chromatography (TLC) plates using butanol:acetic acid:water (3:1:1). The fluorescent NBD-dihydrosphingosine 1-phosphate band was quantified using a BioRad ChemiDoc imaging system with excitation by UV light.
Supplementary Figure 2. […] Activity of recombinant
human sphingosine kinases 1 and 2 (SphK1 and 2) was assessed in the presence of 10 µM
Activity is expressed as a percentage of the vehicle control.

HEK293 cells [3] = test: Non-viable cells by propidium iodide staining and flow cytometry, 72 h; type: cell-based; details: at or below 1 μM
Protocol: Lipid levels are expressed as a percentage of vehicle control levels. […] All graphs show combined data from two independent experiments, each with 3 (a) or 4 (b-d) separate cell treatments, mean ± SEM. Statistical significance in (b-d) was determined by t-tests adjusted for multiple comparisons, comparing all lipids (22 lipids tested in total) at each concentration to the control group; ^+P < 0.05; ^#P < 0.01; *P < 0.001

SkM [4] = test: Western blotting of SkM (respiratory complex subunits, PGC-1α, AMPK, ACC); type: in vivo, mice
Protocol: Tissues were homogenized in RIPA buffer (100 mM NaCl, 10 mM Tris, pH 7.4, 1% Triton X-100, 0.5% sodium deoxycholate, 0.1% SDS, 1 mM EDTA, 10% Glycerol) containing complete protease inhibitor cocktail (Roche) and phosphatase inhibitors (3 mM β-glycerophosphate, 1 mM sodium orthovanadate, 5 mM sodium fluoride) by bead-beating in a Precellys 24 at 4 °C. Extracts were centrifuged at 6500 rpm for 10 min at 4 °C. Supernatant was collected and protein concentrations determined with the Bicinchoninic acid (BCA) assay (Thermo Scientific). Protein lysates (15 μg) were resolved on SDS-PAGE, transferred to polyvinylidene difluoride (PVDF) membrane, and immunoblotted with antibodies against Complex I subunit NADH dehydrogenase (#ab110242, Abcam), Complex II succinate dehydrogenase subunit B (#ab14714, Abcam), Complex III subunit Core 2 Ubiquinol-cytochrome c reductase (#ab14745, Abcam), Complex IV Cytochrome c oxidase (#11967S, Cell Signaling Technology), Complex V ATP synthase α subunit (#ab14748, Abcam), PGC1α (#AB3242, Merck Millipore), AMPKα (#2532S, Cell Signaling Technology), phospho- AMPKα (Thr172) (#2535S, Cell Signaling Technology), ACC (#3662S, Cell Signaling Technology), phospho-ACC (Ser 79, which also detects Ser 212 in ACC2, the predominant ACC isoform in SkM) (#3661S, Cell Signaling Technology) and pan 14-3-3 (#sc-629, Santa Cruz Biotechnology). All antibodies were used at a dilution of 1:1000. A common loading control was included on every gel to account for variation in relative band intensities between different blots. Antibody-antigen binding was detected using ECL Reagent (GE Healthcare) and imaged on a Fujifilm Las-4000 CCD camera. Bands were quantified by densitometry with Fuji ImageQuantTL software. Full images of blots in Fig. 6 are shown in Supplementary Figure 12.
Western blots for phospho-AMPK (Thr172), total AMPK, phospho-ACC (Ser79), and total
ACC in vehicle- or P053-treated mice on a chow or HFD. Denistometry for phospho-
AMPK/total AMPK and phospho-ACC/total ACC is shown (n = 10 mice per group).
(§1) (1 picture or pasted object on this page, not shown here)

cortical neuron cultures = test: Live-cell ceramide synthase assay: deuterated ceramide from D7-dihydrosphingosine; details: two hour pre-treatment
Protocol: Mouse cortical neurons were prepared from E16 pups[65] and seeded at 5 × 10^6 cells/well in poly-D-lysine coated six-well plates. Two weeks after seeding, neurons were pre-treated for 2 h with P053, then incubated for a further 1 h with 1 μM deuterated dihydrosphingosine (D7-dhSph). Lipid extraction and quantification of D7-ceramide using liquid chromatography-tandem mass spectrometry (LC-MS/MS)[34] is described below.
Targeted quantification of ceramide, HexCer, and SM species in primary neurons, HEK293 cells, mouse brain, and gastrocnemius muscle lipid extracts was performed by LC-MS/MS on a TSQ Access triple quadrupole mass spectrometer (Thermo Fisher Scientific)[69]. Lipids were separated on a 3 × 150 mm Agilent XDB-C8 column (5 μM pore size) with a 10 min isocratic chromatography run using methanol containing 0.2% formic acid as the mobile phase. Precursor ions were the precise [M + H] species for each lipid. […] Deuterated (D7) ceramides were detected as the corresponding m/z + 7 ions.

HEK293 cells [5] = test: Detection of the phosphate of the compound in cultured cells, LC-MS/MS; type: in vitro ADME; details: 1 µM, 2 h
Protocol: (§2) LC-MS/MS was performed on a TSQ Quantum Access triple quadrupole mass spectrometer in positive ion mode, coupled to an Accela UPLC system (Thermo Scientific). Extracts (20 μL) were separated on a 2 × 100 mm Eclipse XDB-C8 column with 1.8 μm particle size (Agilent Technologies), using a 7.5 min binary HPLC gradient: 0 min, 70% B ([…]); 1.5 min, 70% B; 3.5 min, 95% B; 4 min, 95% B; 4.5 min, 70% B; 7.5 min 70% B. Mobile phase A: 2 mM ammonium formate/1% formic acid in water; mobile phase B: 1 mM ammonium formate/1% formic acid in methanol. The flow rate was 0.4 mL min^−1, increasing to 0.5 mL min^−1 from 5–7 min, and column oven 30 °C. […] Visualisation and quantification of peaks was performed using Thermo Fisher’s XCalibur software v2.2.
(§3) Supplementary Figure 8. P053 is not phosphorylated in situ or in vivo. (a-b) HEK293 cells […]
(§4) LC-MS/MS analysis. Chromatograms for (a) FTY720 and its phosphate, and (b) P053 and its putative phosphate are shown. […]
(§5) mg/kg/day for 6 weeks, corresponding to a plasma concentration of ~300 nM. No peak is […]
as §1

soleus muscles = test: 14C-palmitate oxidation and incorporation into TAG in isolated soleus muscles of treated mice; type: in vivo
Protocol: After a 30 min pre-incubation, muscles were transferred into vials containing 0.5 mCi/mL of [1-^14C]-palmitate in modified Krebs-Henseleit buffer for another 1 h. The reaction was stopped by removal of the muscles and addition of 1 M perchloric acid to the reaction mixture. ^14C-labelled CO2 was quantified as described above. The muscles were blotted dry and snap frozen in liquid nitrogen for subsequent lipid extraction and TLC. Muscles were homogenized using a Polytron (Kinematica, Littau-Lucerne, Switzerland) in 1.5 mL 2:1 chloroform-methanol (v/v). […] The upper aqueous phase was used to quantify ASM, and the lower organic phase was collected and dried under stream of N2, then reconstituted in hexane and spotted on a Silica Gel 60 F254 TLC plate. The TLC plate was developed in hexane/diethyl ether/glacial acetic acid (85:15:1), then air dried. TAG bands were visualised using iodine vapour staining, using an external standard to mark their position, then scraped into vials and quantified by liquid scintillation counting.

[6] = Detection of P053-phosphate in plasma of dosed mice, LC-MS/MS; type: in vivo; details: 5 mg/kg/day for 6 weeks
Protocol: as §2, §3, §4, §5, §1

T1 sequence (Q9NRA0 whole entry): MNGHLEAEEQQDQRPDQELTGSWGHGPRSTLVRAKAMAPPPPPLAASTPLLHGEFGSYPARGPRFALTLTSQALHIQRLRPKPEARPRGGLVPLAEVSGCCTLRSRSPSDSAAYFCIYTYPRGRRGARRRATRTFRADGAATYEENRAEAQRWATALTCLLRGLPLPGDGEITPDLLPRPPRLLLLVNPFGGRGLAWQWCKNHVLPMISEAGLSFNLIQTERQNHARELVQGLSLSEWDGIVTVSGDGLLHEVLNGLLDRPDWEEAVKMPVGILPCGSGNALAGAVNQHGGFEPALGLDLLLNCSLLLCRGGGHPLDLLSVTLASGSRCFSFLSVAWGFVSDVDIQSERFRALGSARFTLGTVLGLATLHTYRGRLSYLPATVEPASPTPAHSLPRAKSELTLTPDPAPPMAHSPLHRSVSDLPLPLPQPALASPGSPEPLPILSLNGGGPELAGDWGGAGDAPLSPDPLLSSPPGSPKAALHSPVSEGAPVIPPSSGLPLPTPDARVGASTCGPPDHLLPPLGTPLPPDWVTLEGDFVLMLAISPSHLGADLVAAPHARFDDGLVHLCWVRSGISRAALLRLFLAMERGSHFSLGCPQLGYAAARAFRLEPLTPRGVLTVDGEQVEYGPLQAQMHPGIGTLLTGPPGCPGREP

SMILES | melting point [°C] | dihydrosphingosine levels in SkM (SkM [1]) | increase of sphingosine levels in SkM (SkM [1]; HFD) [%] | increase of sphingosine levels in SkM (SkM [1]; chow diet, not significant) [%] | inhibition of sphingosine kinase 2 [2] | HEK293 cell viability (HEK293 cells [3]) | phosphorylation of AMPK or acetyl-CoA carboxylase (ACC) (SkM [4]) | protein expression of Pgc-1α (SkM [4]) | respiratory complexes at the protein level (SkM [4]) | de novo C18:0 ceramide synthesis from deuterated dihydrosphingosine (cortical neuron cultures) | phosphate of the compound in cultured HEK293 cells (HEK293 cells [5]) | oxidation of 14C-palmitate in soleus muscles (soleus muscles; 2 weeks, 5 mg/kg) | incorporation of 14C-palmitate into TAG (soleus muscles; 2 weeks, 5 mg/kg, 1 h incubation) | increase of the rate of palmitate oxidation in muscle (soleus muscles; P053 treatment) [%] | phosphate of the compound in plasma of mice [6]
C[C@@](N)(CO)CCc1ccc(OCc2ccccc2)cc1 [G024, (2S)-2-amino-4-(4′-benzyloxyphenyl)-2-methyl-1-butanol] | 196.7 to 197.6 | – | – | – | – | – | – | – | – | – | – | – | – | – | –
C[C@@](N)(CO)CCc1ccc(OCc2ccc(Cl)c(Cl)c2)cc1 [P053, (S)-2-amino-4-(4-(3,4-dichlorobenzyloxy)phenyl)-2-methylbutan-1-ol] | – | not notably affected | 22 | 11 | did not inhibit; also recorded: does not inhibit; also recorded: no inhibitory activity | no effect | no effect | significantly increased | up-regulated | dose-dependent inhibition | only background signal; also recorded: not detected | significantly increased | unchanged | 23 | only background signal is detected; also recorded: not detected
CCCCCCCCc1ccc(CCC(N)(CO)CO)cc1 [FTY720, reference compound] | – | – | – | – | – | – | – | – | – | – | definitive peak; also recorded: clearly detected | – | – | – | –
